In patent US12570612B2, “Substituted nitrogen heterocyclic compound and anesthetic effect thereof” (priority 2019, dated 2026):
Where “and” joins values, the source holds several entries; their conditions need not be identical. Identical values can stand only once. Entries after “also recorded” stand apart in the source; their conditions may differ. Like-named read-outs stand apart in the source and are kept apart here.

How the values were obtained:
[1] = system: Sprague-Dawley rats; assay: animal or person; assay type: in vivo; conditions: rats; for ED50: LORR, up and down method, tail vein, class symbols
Source text: Evaluating indicator: The end point of anesthesia: LORR was used as the end point of anesthesia; General anesthesia effect: the disappearance of forepaw righting reflex in rats lasting for 30 seconds is taken as the index of general anesthesia effect; Anesthesia recovery index: the recovery of rat forepaw righting reflex was used as the index of anesthesia recovery.

[2] = system: Sprague-Dawley rats; assay: Pharmacological effect and adverse reactions under the equivalent dose (2ED50), Group C compounds; assay type: in vivo; conditions: for Righting reflex duration / Sedation duration / Onset time: 2ED50, tail vein, rats, n=8; for Adverse reaction: Convulsions / Adverse reaction: Cough, broken-winded / Adverse reaction: Euphoria / Adverse reaction: Red urine / Adverse reaction: Slower breathing, Tetany convulsion / Adverse reaction: Systemic stiffness, Convulsions, Opisthotonus / Adverse reaction: Tongue stretching / Adverse reaction: Tremor / Adverse reaction: the four limbs rigidity: equivalent dose (2ED50), number of rats of n = 8
Source text: Evaluation index: onset time: from the completion of drug injection to the disappearance of forepaw righting reflex in rats; Duration of anesthesia: the time from the disappearance of rat forepaw righting reflex to the recovery of rat forepaw righting reflex; Recovery time of anesthesia: the time from the […] to complete recovery;

[3] = system: Sprague-Dawley rats; assay type: in vivo; conditions: tail vein
[4] = system: H295R cell line; assay: Adrenocortical function in vitro test: secretion of cortisol and corticosterone, Group A compounds; assay type: cell-based; conditions: H295 cells; for EC50: 0.1-10000 nM, HPLC-MS/MS
[5] = system: Sprague-Dawley rats; assay: Pharmacological characteristics at equivalent doses (2ED50), Group A compounds; assay type: in vivo; design: Sedation duration: unit not given here; conditions: 2ED50, tail vein; for Types and incidence of adverse reactions: (animals affected/animals)
[6] = system: Sprague-Dawley rats; assay: animal or person; conditions: for Approximate therapeutic index / Minimal lethal dose: rats
Experimental: Adult male Sprague-Dawley rats (250-300 g) were selected for the experiment. […] The anesthesia effects of the compounds were assessed in rats using a LORR assay and a period >30 s was considered as an indicator of general anesthesia.

[7] = system: Sprague-Dawley rats; conditions: for Recovery time after stopping infusion: LORR maintained for 1 hour; for Recovery time after stopping infusion / Onset time: 2 times the MIR; for Onset time / Types and incidence of adverse reactions: continuous infusion; for Types and incidence of adverse reactions: (animals affected/animals)
Experimental: Adult male Sprague-Dawley rats with body weight ranging from 250 to 300 gm were selected for continuous infusion test. […] Time to recovery of righting reflex from stopping infusion, and time to fully awake from stopping infusion were recorded.

[8] = Rattus norvegicus, read-out: ED50

| SMILES | ED50 [1, 8] [mg/kg] | Righting reflex duration [2] [min] | Sedation duration [2] [min] | Adverse reaction: Convulsions [2] | Adverse reaction: Cough, broken-winded [2] | Adverse reaction: Euphoria [2] | Adverse reaction: Red urine [2] | Adverse reaction: Slower breathing, Tetany convulsion [2] | Adverse reaction: Systemic stiffness, Convulsions, Opisthotonus [2] | Adverse reaction: Tongue stretching [2] | Adverse reaction: Tremor [2] | Adverse reaction: the four limbs rigidity [2] | Minimal lethal dose [3] [mg/kg] | Approximate therapeutic index [1] | Onset time ([2]; unit min) [min] | Corticosterone as an indicator to determine the presence of inhibition [4] | Cortisol as an indicator to determine the presence of inhibition [4] | Onset time [5] [min] | Righting reflex duration [5] [min] | Types and incidence of adverse reactions [5] | further results |
| --- | --- | --- | --- | --- | --- | --- | --- | --- | --- | --- | --- | --- | --- | --- | --- | --- | --- | --- | --- | --- | --- |
| CC(=O)COCC(=O)c1cc(F)nn1[C@H](C)c1ccccc1 [Compound C16] | 2 to 10 | 2.26 ± 0.81 | 4.89 ± 0.98 | 0 | 0 | 0 | 8 | 0 | 0 | 1 | 2 | 4 | >17.0 | – | – | – | – | – | – | – | Onset time ([2]; unit s): <0.5 min |
| CC#CCC(=O)c1cncn1[C@H](C)c1ccccc1 [Compound C57] | 2 to 10 | 1.89 ± 0.29 | 6.12 ± 1.14 | 0 | 0 | 0 | 8 | 0 | 0 | 2 | 1 | 0 | >13.61 | >16.6 | <1 | – | – | – | – | – | – |
| CC#CCOCC(=O)c1cc(F)nn1[C@H](C)c1ccccc1 [Compound C14] | – | 1.38 ± 0.47 | 9.03 ± 1.58 | 0 | 0 | 1 | 8 | 0 | 0 | 0 | 1 | 0 | >14.5 | >6.0 | <1 | – | – | – | – | – | ED50 [1]: ++++ (++++ indicates that the measured ED50 is in the range of 2.00-10.00 mg/kg (excluding 2.00 mg/kg, including 6.00 mg/kg)) |
| COC1CC(OC(=O)c2c(F)cnn2C(C)c2ccccc2)C1 (centres unmarked) [Compound A76] | – | – | – | – | – | – | – | – | – | – | – | – | – | – | – | 0 | 0 | 0.36 ± 0.12 | 2.29 ± 0.56 | Red urine(8/8),; also recorded: Tremor(2/8),; also recorded: Euphoria(1/8) | EC50 ([4]; read-out: EC50 (Corticosterone)): > 1000 nM; EC50 ([4]; read-out: EC50 (Cortisol)): > 1000 nM; Sedation duration [5]: 9.08 ± 2.16; ED50 ([6]; LORR in rats, tail vein, brackets = 95% confidence limit): A (A indicates that the measured ED50 is in the range of 0.04-0.50 mg/kg (including 0.04 and 0.50 mg/kg)); Approximate therapeutic index [6]: >10; Minimal lethal dose [6]: >2 mg/kg; Recovery time after stopping infusion [7]: 14 to 16 min; Onset time [7]: 3 to 4 min; Types and incidence of adverse reactions [7]: Tremor(1/6), Tongue; also recorded: stretching(2/6) |
| C=C=CC1(OC(=O)c2ccnn2[C@H](C)c2ccccc2)COC1 [Compound A24] | – | – | – | – | – | – | – | – | – | – | – | – | – | – | – | 0 | 0 | 0.47 ± 0.09 | 1.47 ± 0.63 | Red and urine(8/8), Convulsions(5/ and 8), Hindlimb rigidity (2/8) | EC50 ([4]; Homo sapiens, read-out: EC50 (Corticosterone)): > 1000 nM; EC50 ([4]; Homo sapiens, read-out: EC50 (Cortisol)): > 1000 nM; ED50 ([6]; Rattus norvegicus): 0.04 to 0.5 mg/kg; Approximate therapeutic index [6]: >31; Minimal lethal dose [6]: >6 mg/kg; Recovery time after stopping infusion [7]: 8 to 12 min; Onset time [7]: 4 to 5 min; Types and incidence of adverse reactions [7]: Tremor(2/6), Tongue; also recorded: stretching(4/6) |
